The text below walks through data of paper PMC9505732, “Chemistry and Bioactivity of the Deep-Water Antarctic Octocoral Alcyonium sp” (Marine Drugs, 2022).

One data set deals with Leishmania donovani. The experiment in a line: Leishmania donovani infected macrophage assay. The format is cell-based. As to conditions: read-out: IC50 against Leishmania donovani. How it is done: (§1) The Leishmania donovani infected macrophage assay and cytotoxicity screen were conducted as previously described.
Data set [1] relates to ESKAPE panel of bacterial pathogens. The experiment in a line: ESKAPE panel antibacterial screen. The format is cell-based.
The test system of another data set is C. difficile UK6. The experiment in a line: microbe, parasite or virus in culture. The format is cell-based, Clostridium difficile. As to conditions: Clostridioides difficile, UK6, 48 h, read-out: MIC against C. difficile. As to the method: The screening against C. difficile was performed in two steps. In step 1, overnight culture of a hyper-virulent clinical strain C. difficile UK6 was inoculated into a fresh BHIS medium at a volume ratio of 1:1000. After pre-incubation at 37 °C under an anaerobic atmosphere for 2 h, the bacterial culture was divided into a sterile 96-well plate and each well contained 192 μL of bacterial culture. Then, 8 μL of each extract was added to each well of the plate, mixed thoroughly, and incubated at 37 °C in an anaerobic chamber for 48 h. Control groups of 200 μL of BHIS medium only, 200 μL of bacterial culture only, and 192 μL of bacterial culture in 8 μL of DMSO were also included in separate columns within each plate. […] Serial dilutions of each extract (400 μg/mL, 200 μg/mL, 100 μg/mL, 50 μg/mL, 20 μg/mL, 10 μg/mL, 5 μg/mL, and 2 μg/mL) were prepared in a fresh BHIS medium. Then, 100 μL of each extract dilution was added to 100 μL of bacterial culture (pretreated as described), mixed well, and incubated at 37 °C in an anaerobic chamber for 48 h. Control groups including wells containing fresh medium only and bacterial culture only were also included as described. Activity was determined as +/− (clear or turbid (OD600) culture). The MICs of the three recommended antibiotics metronidazole, vancomycin, and fidaxomicin against C. difficile UK6 were also determined using broth microdilution methodology.

The nature of data set [2]: MTT cytotoxicity toward human kidney cells. As to conditions: human, HEK293T cells; host cell line HEK293T, MTT, 24 h incubation. The format is cell-based. How it is done:
(§2) The cytotoxicity of the metabolites to human liver cells and kidney cells was determined using an MTT based-In Vitro Toxicology Assay Kit (Sigma–Aldrich, St. Louis, MO, USA) following the manufacturing instructions. The human kidney HEK293T cells and the human liver HEPGZ cells were used for the evaluation in this study. Both cell samples were maintained and suspended in Dulbecco’s Modified Eagle Medium (DMEM with 4.5 g/L glucose, L-glutamine and sodium pyruvate, Corning, Manassas, VA, USA) containing 10% fetal bovine serum (Thermo Scientific) and 1% penicillin/streptomycin at 37 °C under 5% CO2 atmosphere. The cells were plated on a 96-well plate with approximately 5 × 10^3–1 × 10^4 cells in each well, and incubated at 37 °C overnight. After that, each of the selected extracts from the antimicrobial susceptibility test was added to the wells and incubated with the cells at a series of 2-fold diluted concentrations ranging from 128 μg/mL to 0.125 μg/mL. […] After that, the liquid in each well of the plate was removed carefully and thoroughly, then the cells in the wells were treated with 100 μL of DMSO, and incubated at 37 °C for 15 m. […] Bio Tek Instruments, Inc. Winooski VT). Cells treated with vancomycin, a common option for treating CDI in clinical settings, were also included in the MTT tests as a control. Cell survival and the IC50 were calculated according to the method used in a previous publication: Survival of cells (%) = Drug-treated group OD540/control group OD540 × 100. The IC50 value was calculated as follows: lgIC50 = Xm − I [P − (3 − Pm − Pn)/4], where Xm was the log maximum dose, I was the log (maximum dose/adjacent dose), P was the sum of the positive response rate, Pm was the maximum positive response rate, and Pn was the minimum positive response rate.

Data set [3] can be described thus: MTT cytotoxicity toward human liver cells. The format is cell-based. As to conditions: human, HepG2 cells; host cell line HepG2, MTT, 24 h incubation. How it is done:
as §2

Data set [4] can be described thus: Cytotoxicity screen against Leishmania host cell line. The format is cell-based. As to conditions: mouse, J774.A1 macrophages. As to the method:
as §1

Another data set concerns HEK293T cells. The experiment in a line: MTT cytotoxicity toward human kidney cells. The format is cell-based. The settings on record: at the same concentrations alcyopterosins were assayed. As to the method: as §2
The next data set deals with HepG2 cells. Nature of the data set: MTT cytotoxicity toward human liver cells. The format is cell-based. The settings on record: at the same concentrations alcyopterosins were assayed. As to the method: as §2

Structures are written as SMILES. In brackets after ≈: the same amount, converted by molar mass.

With `CCCCCCCCCCCCCCCCOP(=O)([O-])OCC[N+](C)(C)C` [miltefosine, reference compound], the half-inhibitory concentration (IC50) (as a rule, the midpoint of a concentration-inhibition curve) in the data set on Leishmania donovani turned out to be 6.2 µM.

As to `CC(=O)O[C@@H]1[C@H](OC(C)=O)[C@H]([C@H](C)CCCC(C)C)[C@@]2(C)C[C@@H](OC(C)=O)[C@H]3[C@@H](C[C@@H](O)[C@H]4CC=CC(=O)[C@]34C)[C@H]12` [alcyosterone], the “activity against the ESKAPE panel of bacterial pathogens” value (“activity against the ESKAPE panel” below) in data set [1] was “inactive”. Further, the IC50 in the data set on Leishmania donovani was found to be 1.5 µM.

For `Cc1cc2c(c3c1[C@@H](CO)OC3=O)CC(C)(C)C2` [Alcyopterosin V], the “activity against the ESKAPE panel” value in data set [1] is “inactive”. For the same compound, the MIC in the data set on C. difficile UK6 is 8.1 µM (≈ 2 µg/mL). In addition, the CC50 (in general, the concentration at which the toxic effect on the cells reaches its halfway point) at 24 h in data set [2] was 220 µM; in data set [3], 288 µM. In addition, the IC50 in the data set with Leishmania donovani was 7 µM; in data set [4], 110 µM.

As to `CC(=O)OCCc1c(C)cc2c(c1COC(C)=O)CC(C)(C)C2` [4,12-Bis(acetyl)alcyopterosin O, 4,12-bis(acetyl)alcyopterosin O], the IC50 in the data set with Leishmania donovani was 1.2 µM.

Turning to `Cc1cc2c(c(C)c1CCO[N+](=O)[O-])CC(C)(C)C2=O` [alcyopterosin C], the IC50 with Leishmania donovani was found to be 13 µM.

For the compound `CN[C@H](CC(C)C)C(=O)N[C@H]1C(=O)N[C@@H](CC(N)=O)C(=O)N[C@H]2C(=O)N[C@H]3C(=O)N[C@H](C(=O)N[C@H](C(=O)O)c4cc(O)cc(O)c4-c4cc3ccc4O)[C@H](O)c3ccc(c(Cl)c3)Oc3cc2cc(c3O[C@@H]2O[C@H](CO)[C@@H](O)[C@H](O)[C@H]2O[C@H]2C[C@](C)(N)[C@H](O)[C@H](C)O2)Oc2ccc(cc2Cl)[C@H]1O` [Vancomycin, reference compound], in the data set with C. difficile UK6, the MIC stood at 0.34 µM (≈ 0.493 µg/mL). In addition, in the data set on HEK293T cells, the “toxicity to host cells HEK293T” value is “non-toxic”. In the data set with HepG2 cells, the “toxicity to host cells HepG2” value is “non-toxic”.

In the case of `Cc1cc2c(c3c1[C@@H](CO[N+](=O)[O-])OC3=O)CC(C)(C)C2` [Alcyopterosin E], in data set [1], the “activity against the ESKAPE panel” value was “inactive”. In addition, the MIC with C. difficile UK6 is 6.9 µM (≈ 2.01 µg/mL). For the same compound, the CC50 at 24 h worked out at 570 µM in data set [2] and 331 µM in data set [3]. The results for the IC50 (in the data set with Leishmania donovani; in data set [4]) were 3.1 µM and 62 µM, respectively.

Regarding `Cc1cc2c(c3c1[C@@H](CCl)OC3=O)CC(C)(C)[C@@H]2O` [alcyopterosin L], in the data set with Leishmania donovani, the IC50 came to 2.4 µM.
